# Source: publication PMC6222614, “Disubstituted 4-Chloro-3-nitrophenylthiourea Derivatives: Antimicrobial and Cytotoxic Studies” (Molecules : A Journal of Synthetic Chemistry and Natural …, 2018)
# Like-named read-outs stand apart in the source and are kept apart here.
# Legend:
# [1] = Cytotoxicity against mock-infected MT-4 cells (MTT); type: cell-based, human; settings: human, concentration reducing viability of mock-infected MT-4 cells by 50%
# Outline: (§1)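 Uninfected MT-4 cells (HTLV-1-transformed human CD4+ T cells) seeded at 1 × 10^5 cells/mL in RPMI-1640 with 10% FBS and grown with serially diluted compounds at 37 °C, 5% CO2. Viability read by MTT after 96 h.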
# B. cereus ATCC 11778 = assay: MIC, twofold serial microdilution; type: cell-based; settings: Bacillus cereus, ATCC11778; standard strain, 18 h, 35 °C
# Procedure: (§2) The antimicrobial activity of the compounds was tested on Gram-positive bacteria (Staphylococcus aureus NCTC 4163, Staphylococcus aureus ATCC 25923, Staphylococcus aureus ATCC 6538, Staphylococcus aureus ATCC 29213, Staphylococcus epidermidis ATCC 12228, Staphylococcus epidermidis ATCC 35984, Enterococcus faecalis ATCC 29212, Bacillus subtilis ATCC 6633, Bacillus cereus ATCC 11778, Micrococcus luteus ATCC 9341, Micrococcus luteus ATCC 10240); Gram-negative rods (Escherichia coli ATCC 10538, Escherichia coli ATCC 25922, Escherichia coli NCTC 8196, Proteus vulgaris NCTC 4635, Pseudomonas aeruginosa ATCC 15442, Pseudomonas aeruginosa NCTC 6749, Pseudomonas aeruginosa ATCC 27863, Bordetella bronchiseptica ATCC 4617) and yeasts (Candida albicans ATCC 10231, Candida albicans ATCC 90028, Candida parapsilosis ATCC 22019). Other microorganisms used were obtained from the collection of the Department of Pharmaceutical Microbiology, Medical University of Warsaw, Poland.
# (§3) Antibacterial activity was examined by the disc-diffusion method under standard conditions using Mueller-Hinton II agar medium (Becton Dickinson) according to CLSI (previously NCCLS) guidelines. Antifungal activities were assessed using Mueller-Hinton agar + 2% glucose and 0.5 µg/mL Methylene Blue Dye Medium. Sterile filter paper discs (9 mm diameter, Whatman No 3 chromatography paper) were dripped with tested compound solutions (in DMSO) to load 400 μg of a given compound per disc. Dry discs were placed on the surface of appropriate agar medium. The results (diameter of the growth inhibition zone) were read after 18 h of incubation at 35 °C. Minimal Inhibitory Concentration (MIC) was tested by the twofold serial microdilution method (in 96-well microtiter plates) using Mueller-Hinton Broth medium (Beckton Dickinson) for bacteria or RPMI-1640 medium for Candida species according to CLSI guidelines. The stock solution of tested agent was prepared in DMSO and diluted in sterile water. Concentrations of tested agents ranged from 0.125 to 512 µg/mL. The final inoculum of all studied microorganisms was 10^5 CFU/ mL^−1 (colony forming units per mL). Minimal inhibitory concentrations (the lowest concentration of a tested agent that prevents visible growth of a microorganism) were read after 18 h (bacteria) or 24 h (yeasts) of incubation at 35 °C.
# [2] = tested on: S. epidermidis ATCC 12228; assay: MIC, twofold serial microdilution; type: cell-based; settings: Staphylococcus epidermidis, ATCC12228; standard strain, 18 h, 35 °C
# Procedure: as §2, §3
# [3] = tested on: S. epidermidis ATCC 35984; assay: MIC, twofold serial microdilution; type: cell-based; settings: Staphylococcus epidermidis, ATCC35984; standard strain, 18 h, 35 °C
# Procedure: as §2, §3
# M. luteus ATCC 10240 = assay: MIC, twofold serial microdilution; type: cell-based; settings: Micrococcus luteus, ATCC10240; standard strain, 18 h, 35 °C
# Procedure: as §2, §3
# M. luteus ATCC 9341 = assay: MIC, twofold serial microdilution; type: cell-based; settings: Micrococcus luteus, ATCC9341; standard strain, 18 h, 35 °C
# Procedure: as §2, §3
# S. aureus ATCC 25923 = assay: MIC, twofold serial microdilution; type: cell-based; settings: Staphylococcus aureus, ATCC25923; standard strain, 18 h, 35 °C
# Procedure: as §2, §3
# S. aureus ATCC 29213 = assay: MIC, twofold serial microdilution; type: cell-based; settings: Staphylococcus aureus, ATCC29213; standard strain, 18 h, 35 °C
# Procedure: as §2, §3
# S. aureus ATCC 6538 = assay: MIC, twofold serial microdilution; type: cell-based; settings: Staphylococcus aureus, ATCC6538; standard strain, 18 h, 35 °C
# Procedure: as §2, §3
# B. subtilis ATCC 6633 = assay: MIC, twofold serial microdilution; type: cell-based; settings: Bacillus subtilis, ATCC6633; standard strain, 18 h, 35 °C
# Procedure: as §2, §3
# S. aureus NCTC 4163 = assay: MIC, twofold serial microdilution; type: cell-based; settings: Staphylococcus aureus, NCTC4163; standard strain, 18 h, 35 °C
# Procedure: as §2, §3
# [4] = tested on: S. epidermidis MRSE 422/11; assay: MIC, hospital methicillin-resistant strain; type: cell-based; settings: Staphylococcus epidermidis
# Procedure: as §2, §3
# [5] = tested on: S. epidermidis MRSE 413/11; assay: MIC, hospital methicillin-resistant strain; type: cell-based; settings: Staphylococcus epidermidis
# Procedure: as §2, §3
# [6] = tested on: S. epidermidis MRSE 407/11; assay: MIC, hospital methicillin-resistant strain; type: cell-based; settings: Staphylococcus epidermidis
# Procedure: as §2, §3
# [7] = tested on: S. epidermidis MRSE 409/11; assay: MIC, hospital methicillin-resistant strain; type: cell-based; settings: Staphylococcus epidermidis
# Procedure: as §2, §3
# [8] = tested on: S. epidermidis MRSE 406/11; assay: MIC, hospital methicillin-resistant strain; type: cell-based; settings: Staphylococcus epidermidis
# Procedure: as §2, §3
# [9] = tested on: S. epidermidis MRSE 405/11; assay: MIC, hospital methicillin-resistant strain; type: cell-based; settings: Staphylococcus epidermidis
# Procedure: as §2, §3
# [10] = tested on: S. epidermidis MRSE 404/11; assay: MIC, hospital methicillin-resistant strain; type: cell-based; settings: Staphylococcus epidermidis
# Procedure: as §2, §3
# [11] = tested on: S. epidermidis MRSE 403/11; assay: MIC, hospital methicillin-resistant strain; type: cell-based; settings: Staphylococcus epidermidis
# Procedure: as §2, §3
# [12] = tested on: S. epidermidis MRSE 411/11; assay: MIC, hospital methicillin-resistant strain; type: cell-based; settings: Staphylococcus epidermidis
# Procedure: as §2, §3
# [13] = tested on: S. epidermidis MRSE 412/11; assay: MIC, hospital methicillin-resistant strain; type: cell-based; settings: Staphylococcus epidermidis
# Procedure: as §2, §3
# HIV-1 IIIB = assay: Anti-HIV-1 activity: protection of MT-4 cells from virus-induced cytopathogenicity (MTT); type: cell-based, Human Immunodeficiency Virus type-1; settings: 50% protection of MT-4 cells from HIV-1 induced cytopathogenicity, MTT, 4-day incubation, read-out: HIV-1IIIB EC50
# Outline: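 MT-4 cells (1 × 10^4/well) infected with HIV-1 IIIB at m.o.i. 0.01 (100 CCID50) in presence of serial compound dilutions. Protection from virus-induced cytopathogenicity measured by MTT viability after 4 days at 37 °C.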
# standard strains = assay: Antimicrobial activity against set of bacterial and fungal strains; type: cell-based; settings: range over standard strains
# Procedure: as §2
# as §3, with “The stock solution of tested agent was prepared in DMSO and diluted in sterile water. Concentrations of tested agents ranged from 0.125 to 512 µg/mL. The final inoculum of all studied microorganisms was 10^5 CFU/ mL^−1 (colony forming units per mL).” left out
# HaCaT cells [14] = assay: Lactate dehydrogenase (LDH) release assay in HaCaT cells; type: cell-based; settings: 24 h, all applied concentrations (37 µM and higher)
# Procedure: Cells were passaged using trypsin-EDTA (Gibco Life Technologies, Carlsbad, CA, USA) and cultured in 24-well plates (2.5 × 10^4 cells per well). Experiments were conducted in DMEM with 2% FBS.
# Release of lactate dehydrogenase (LDH) from the cytosol to culture medium is a marker of cell death. The assay was performed after 24 h incubation of HaCaT cells in 24-well plates with investigated concentrations of each compound. The activity of LDH released from the cytosol of damaged cells to the supernatant was measured using the protocol of the cytotoxicity detection kit LDH test described by the manufacturer (Roche Diagnostics, Berlin, Germany). Absorbance was measured at 490 nm using a microplate reader (using Epoch microplate reader, BioTek Inc., Winooski, VT, USA) equipped with Gen5 software (BioTech Instruments, Inc., Biokom, Janki, Polska)
# Compounds mediated cytotoxicity expressed as the LDH release (%) was determined by the following equation: [(A test sample—A low control)/(A high control—A low control)] × 100% (A-absorbance); where “low control” were cells in DMEM with 2% FBS without tested compounds, and “high control” were cells incubated in DMEM with 2% FBS with 10% Triton X-100 (100% LDH release).
# MT-4 cells = assay: Cytotoxicity against mock-infected MT-4 cells (MTT); type: cell-based, human; settings: concentration reducing viability of mock-infected MT-4 cells by 50%, 96 h
# Outline: as §1
# HaCaT cells [15] = assay: Cell viability in HaCaT cells (MTT mitochondrial reduction); type: cell-based, human; settings: HaCaT, 24 h; moderate according to ISO 10993-5
# Procedure: (§4) Human immortal keratinocyte cell line from adult human skin (HaCaT) was purchased from American Type Culture Collection (Rockville, MD, USA), and cultured in Dulbecco’s Modified Eagle’s Medium (DMEM), supplemented with antibiotics (penicillin and streptomycin), 10% heat-inactivated FBS-fetal bovine serum (Gibco Life Technologies, Carlsbad, CA, USA) at 37 °C and 5% CO2 atmosphere. Cells were passaged using trypsin-EDTA (Gibco Life Technologies, Carlsbad, CA, USA) and cultured in 24-well plates (2.5 × 10^4 cells per well). Experiments were conducted in DMEM with 2% FBS.
# The cell viability assay was assessed by the determination of MTT salt (3-(4,5-dimethylthiazol-2-yl)-2,5-diphenyltetrazolium bromide, Sigma-Aldrich Chemie, Buchs, Germany) conversion by mitochondrial dehydrogenase. […] Absorbance of solubilized formazan was measured spectrophotometrically at 570 nm (using Epoch microplate reader, BioTek Inc., Winooski, VT, USA, equipped with Gen5 software (BioTech Instruments, Inc., Biokom, Janki, Polska).
# Cell viability was presented as a percent of MTT in the treated cells versus the control (cells incubated in serum-free DMEM without extracts). The relative MTT level (%) was calculated as [A]/[B] × 100, where [A] is the absorbance of the test sample and [B] is the absorbance of the control sample containing the untreated cells. […]
# HaCaT cells [16] = assay: Proliferation rate in cultures of HaCaT cells (trypan blue counting); type: cell-based, human; settings: lowest concentrations (8 µM for 11 and 13, 37 µM for 25), 48 h
# Procedure: as §4
# After 48 h incubation with the lowest concentration of the tested compound the increased number of viable cells were assessed by direct counting of cells using trypan blue with a Countess Automated Cell Counter (Invitrogen, Carlsbad, CA, USA). The results are presented as a % of viable and dead cells versus control.
compound,measurement,setting,value
"CCCCc1ccc(NC(=S)Nc2ccc(Cl)c([N+](=O)[O-])c2)c(C)c1 [Compound 22, 1-(4-butyl-2-methylphenyl)-3-(4-chloro-3-nitrophenyl)thiourea]",CC50 at 96 h,[1],18.7 µM
same,MIC,B. cereus ATCC 11778,4 µg/mL
same,MIC,[2],4 µg/mL
same,MIC,[3],4 µg/mL
same,MIC,M. luteus ATCC 10240,2 µg/mL
same,MIC,M. luteus ATCC 9341,4 µg/mL
same,MIC,S. aureus ATCC 25923,2 µg/mL
same,MIC,S. aureus ATCC 29213,2 µg/mL
same,MIC,S. aureus ATCC 6538,2 µg/mL
same,MIC,B. subtilis ATCC 6633,4 µg/mL
same,MIC,S. aureus NCTC 4163,4 µg/mL
same,MIC,[4],8 µg/mL
same,MIC,[5],8 µg/mL
same,MIC,[6],4 µg/mL
same,MIC,[7],4 µg/mL
same,MIC,[8],8 µg/mL
same,MIC,[9],4 µg/mL
same,MIC,[10],8 µg/mL
same,MIC,[11],4 µg/mL
same,MIC,[12],4 µg/mL
same,MIC,[13],8 µg/mL
same,EC50,"HIV-1 IIIB; Human immunodeficiency virus 1, IIIB, MT4, 96 h",> 18.7 µM
same,melting point,,67 to 69 °C
same,MIC,standard strains,2 to 4 µg/mL
O=[N+]([O-])c1cc(NC(=S)NCc2ccccc2)ccc1Cl [Compound 25],cytotoxicity as compared to the LD10 value,HaCaT cells [14],7 fold
same,CC50,MT-4 cells,36.7 µM
same,EC50,HIV-1 IIIB,> 36.7 µM
same,cytotoxicity (MTT),HaCaT cells [15],50%
same,inhibition of viable cell proliferation,HaCaT cells [16],30–40%
